Test results: US5605901A, “Indane derivatives, processes for preparing the same and synthetic intermediate of the same” (Tanabe Seiyaku Co., Ltd., priority 1993, dated 1997)

Assay: Action on rat glomerular nephritis (nephrotoxic serum-induced; protein excretion in urine)
Assay type: in vivo, rat (WKY strain)
Conditions: po, 30 mg/kg/10 ml orally twice a day for 8 days, NTS-induced nephritis, 24 hours urine collected after 7 days, read-out: Inhibition rate of excretion of protein in urine
Procedure: (Action on Rat Glomerular Nephritis)
Rabbits were immunized several times with a renal glomerular basement membrane fraction obtained from WKY strain rats and an adjuvant. Thereafter, blood was collected to obtain a nephrotoxic serum (NTS). This NTS was diluted by 50 times with physiological saline, and the diluted NTS was once administered intravenously to male WKY rats of 8 weeks old in a dose of 2.5 ml per 1 kg of body weight to induce nephritis. In normal group of rats, the same volume of physiological saline was intravenously administered.
In the experiment, one group consisted of 6 rats, and each compound to be tested was suspended in water with small amount of Tween 80 (trade name, produced by Nacalai Tesque Co.), and was orally administered to the test group of rats at a dose of 30 mg/kg/10 ml twice a day for 8 days. In normal group and control group of rats, the same volume of water was orally administered instead of the test compound. After 7 days, the rats were placed in metabolic cages and urine was collected for 24 hours. Concentrations of protein in urine were measured by the sulfosalicylic acid method to determine amounts of protein excreted in the urine (mg/day). The inhibition rate of excretion of protein were calculated by the following equation. [formula]

SMILES	inhibition in vivo at 30 mg/kg [%]
CCCC(=O)NC1Cc2ccc(-c3ccc(=O)[nH]n3)cc2C1 (stereo not drawn) [Example 40, 2-butyrylamino-5-[pyridazin-3(2H)-on-6-yl]indane]	72.4
O=C(NCCC1Cc2ccc(-c3ccc(=O)[nH]n3)cc2C1)c1ccncc1 (stereo not drawn) [Example 109]	67.4
C=CC(=O)NCCC1Cc2ccc(-c3ccc(=O)[nH]n3)cc2C1 (stereo not drawn) [Example 105]	60.2
C=CC(=O)NCCCC1Cc2ccc(-c3ccc(=O)[nH]n3)cc2C1 (stereo not drawn) [Example 106]	81
O=C1CCC(c2ccc3c(c2)CC(CCNC(=O)c2cccnc2)C3)=NN1 (stereo not drawn) [Example 148]	88.9
O=C(NCC1Cc2ccc(-c3ccc(=O)[nH]n3)cc2C1)c1cccnc1 (stereo not drawn) [Example 60]	59.5
CCCOC(=O)NC1Cc2ccc(-c3ccc(=O)[nH]n3)cc2C1 (stereo not drawn) [Example 48]	60.3
C=CC(=O)NCCCCC1Cc2ccc(-c3ccc(=O)[nH]n3)cc2C1 (stereo not drawn) [Example 63]	61.6
Nc1ncccc1C(=O)NCCC1Cc2ccc(-c3ccc(=O)[nH]n3)cc2C1 (stereo not drawn) [Example 129]	98.9
Cc1ncccc1C(=O)NCCC1Cc2ccc(-c3ccc(=O)[nH]n3)cc2C1 (stereo not drawn) [Example 127]	93
O=C(NCCC1Cc2ccc(-c3ccc(=O)[nH]n3)cc2C1)c1cccnc1 (stereo not drawn) [Example 110]	91.8

Assay: Action of protecting mouse from death induced by endotoxin
Assay type: in vivo, mouse (ddy strain)
Conditions: 100 mg/kg orally, 30 min before endotoxin 100 mg/10 ml/kg i.p.; determined when control survival became 20 (about 20 hours)
Procedure: (Action of Protecting Mouse from Death Induced by Endotoxin)
To ddy strain male mice (one group: 10 mice) which had fasted for about 24 hours, each test sample dissolved or suspended in a 0.25% sodium carboxymethyl cellulose (CMC) aqueous solution was orally administered (100 mg/kg). After 30 minutes, 100 mg/10 ml/kg of endotoxin (lipopoly-saccharide) derived from Escherichia coli dissolved in physiological saline was administered intraperitoneally. When the survival rate of the control group to which the CMC aqueous solution had been orally administered became 20 (about 20 hours after administration of endotoxin), the survival rates of the groups to which the test samples had been administered were determined.

SMILES	Survival rate [%]
O=C1CCC(c2ccc3c(c2)CC(NC(=O)c2cccnc2)C3)=NN1 (stereo not drawn) [Example 18]	80
CCCN(C(=O)OCC(C)C)C1Cc2ccc(C3=NNC(=O)CC3)cc2C1 (stereo not drawn) [Example 35, 2-(N-propyl-N-isobutoxycarbonylamino)-5-[4,5-dihydropyridazin-3(2H)-on-6-yl]indane]	80
CCCN(C(=O)OCc1ccccc1)C1Cc2ccc(C3=NNC(=O)CC3)cc2C1 (stereo not drawn) [Example 37]	60
CCC(=O)NC1Cc2ccc(C3=NNC(=O)CC3)cc2C1 (stereo not drawn) [Example 12]	90
O=C1CCC(c2ccc3c(c2)CC(NC(=O)c2cnccn2)C3)=NN1 (stereo not drawn) [Example 22]	70
CCCC(=O)NC1Cc2ccc(C3=NNC(=O)CC3)cc2C1 (stereo not drawn) [Example 11, 2-butyrylamino-5-[4,5-dihydropyridazin-3(2H)-on-6-yl]indane]	100
O=C1CCC(c2ccc3c(c2)CC(NC(=O)c2ccccn2)C3)=NN1 (stereo not drawn) [Example 25]	80
